Laboratory results published in patent publication US7604990B2, “Methods of regulating differentiation in stem cells” (ES Cell International Pte Ltd., priority 2002, dated 2009).

Tested on: hES cells
Assay: Double immunostaining GCTM-2/PCNA of dissociated hES cells (Example 4)
Type: cell-based, human
Conditions: 4 days without serum; S1P 10 μM
Experimental: Double staining experiments were performed using antibodies for PCNA and GCTM-2.
For immunostaining, hES-3 cells were coated on chamber slides after mechanical dissociation, in order to obtain a monolayer culture. The day following the plating, cells were incubated with the different agents in a media depleted in serum. Media was changed the 2nd day and the cells were fixed 4 days after the first treatment.
Cells were washed in PBS, fixed with MeOH, and immunostaining was performed, using the specific stem cell marker antibody GCTM-2, and the specific cell proliferation marker PCNA. Cells were then washed and the nucleuses were stained with Hoechst-33342 (1 μg/ml). Slides were mounted and then observed by fluorescent microscopy. Cells were then counted in order to determine the ratio of proliferating stem cells within the overall population.

## CCCCCCCCCCCCC/C=C/[C@@H](O)[C@@H](N)COP(=O)(O)O [S1P, Sphingosine-1-phosphate]
  proliferating rate of hES cells (PCNA) versus control: no marked difference
